In patent publication US20090218708A1, “Process for preparing concentrated aqueous micellar solutions” (Roche Palo Alto LLC, priority 2008, published 2009):

Legend:
Assay type in all cases: physicochemical
[1] = Hygroscopicity: water absorbed in controlled relative humidity chamber (weight gain); details: 4 weeks
Procedure: (§1) A small amount of the solid (about 10 mg from example 1) was weighed into a weighing bottle and placed in a chamber with controlled relative humidity for 4 weeks and the percentage of water absorbed was calculated form the weight gain. The sample was also assayed by HPLC against an external standard on a Waters 2690 HPLC at 276 nm. The data was processed using Waters Millennium software version 3.2. The thermal stability also was determined at 60° C. and at 40° C./75% relative humidity. The purity of the sample was determined by assaying weighed aliquots by HPLC against an external standard.

[2] = Stability study of micellar solid from spray drying of I (HPLC area %)
Procedure: as §1

[3] = Solubility of compound II in solvents
Procedure: Compound II (2 g) was slowly dispersed in 70% IPA (20 mL) and water (14 mL) was added. […] The IPA was distilled using rotary evaporator to achieve an aqueous solution containing ca. […] of II. The concentrated aqueous solution was spray dried using a Buchi B-290 spray drier and the operating parameters were adjusted as follows: […]

hygroscopicity [1] | Area % ([2]; 25° C./60% RH (closed), 4 weeks) | Area % ([2]; 25° C./60% RH (closed), To) | Area % ([2]; 40° C./75% RH (closed), 4 weeks) | Area % ([2]; 40° C./75% RH (closed), To) | Area % ([2]; 40° C./75% RH (open), 5 weeks) | Area % ([2]; 40° C./75% RH (open), To) | Area % ([2]; 60° C. (closed), 5 weeks) | Area % ([2]; 60° C. (closed), To) | thermal stability ([2]; at 40 and 60° C. over the duration of the assay) | SMILES | solubility ([3]; aqueous with cosolvent or surfactant or cyclodextrin, in 70% IPA/H2O) | solubility ([3]; in water) | solubility ([3]; organic solvent or mixture, in IPA)
not hygroscopic | 99.88% | 99.88% | 99.91% | 99.88% | 99.26% | 99.81% | 99.72% | 99.81% | thermally stable | O=C(O)CCc1cc(C(=O)c2ccc(OC3CCCC3)cc2O)ccc1OCc1ccc2c(O)noc2c1 [I] | – | – | –
– | – | – | – | – | – | – | – | – | – | CCC(=O)[N-]S(=O)(=O)c1ccc(NC(=O)Cc2ccc(Br)c(Oc3cc(Cl)cc(C#N)c3)c2F)c(Cl)c1.[Na+] [II] | ~47000 µg/mL | ~4000 µg/mL | ~80 µg/mL
